Test results published in patent publication US4299836A, “Novel ergol-8-ene and ergolin compounds and process for preparing same” (Richter Gedeon Vegyeszeti Gyar Rt., priority 1979, dated 1981).
Where a name gives a salt, the structure may show the parent alone. Read-outs that look alike come from different tables or passages of the source.

How the values were obtained:
[1] = hypotensive activity in anesthetized cats; assay type: in vivo
Protocol: The measurements were performed in cats anesthetized with 30 mg/kg of Pentothal (5-ethyl-5-(1-methylbutyl)-2-thiobarbituric acid sodium salt). The left femoral artery was cannulated; the arterial blood pressure was measured by means of Statham P 23 pressure transducer and registrated by a Hellige polygraph. The test compounds were injected into the right femoral vein. (Method: Mc Leod L. J., in: Pharmacological Experiments on Intact Preparations, E. S. Livingstone, Edinburgh and London, 1970, pp. 65-66.)

serotonine receptor [2] = molecular target: T1, serotonine receptor (Rattus norvegicus, UniProt P14842); assay: in vivo; assay type: in vivo; design: For the in vivo studies the rat paw-oedema test was applied; from tissue; host or cells: live rat, paw; details: for ED50: read-out: In vivo test ED50, 50% inhibition of serotonine induced oedema
T1 sequence (P14842 whole entry): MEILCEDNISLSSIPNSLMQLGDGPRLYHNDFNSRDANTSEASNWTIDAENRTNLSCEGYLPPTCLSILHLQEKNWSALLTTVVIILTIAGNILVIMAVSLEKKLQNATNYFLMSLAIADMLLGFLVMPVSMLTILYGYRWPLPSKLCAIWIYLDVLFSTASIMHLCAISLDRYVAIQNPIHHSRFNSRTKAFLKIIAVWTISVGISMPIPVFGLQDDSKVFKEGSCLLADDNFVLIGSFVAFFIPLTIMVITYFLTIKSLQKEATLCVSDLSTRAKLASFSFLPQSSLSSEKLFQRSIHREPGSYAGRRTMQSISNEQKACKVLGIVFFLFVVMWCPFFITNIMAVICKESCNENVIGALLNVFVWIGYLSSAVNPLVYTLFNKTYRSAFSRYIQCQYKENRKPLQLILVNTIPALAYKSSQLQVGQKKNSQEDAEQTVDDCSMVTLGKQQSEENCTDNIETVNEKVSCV

serotonine receptor [3] = molecular target: T1, serotonine receptor; design: The in vitro antiserotonine activity was determined in rat uterine horn preparation; from tissue; host or cells: rat uterine horn
dopamine receptor [4] = assay: antagonism of narcosis-potentiating effect of Haloperidol in rats; assay type: in vivo
Protocol: The in vivo measurements were performed on rats. The antagonism of narcosis-(Hexobarbital Na, 50 mg/kg i.v.)-potentiating effect of Haloperidol (5 mg/kg i.p.) was determined according to Borsy et al. (Acta Physiol. 27, 65-80 /1965/).

dopamine receptor [5] = assay: dopamine receptor stimulant activity in vitro, electrically stimulated mouse vas deferens preparation; details: for IC50: electrically stimulated mouse vas deferens, read-out: In vitro test Mouse vas deferens ID50
Protocol: The dopamine receptor stimulant activities in vitro were determined on electrically stimulated mouse vas deferens preparation (J. Hughes et al., Brit. J. Pharmacol. 53, 371-381 /1975/).

[6] = tested on: reserpine-induced hypotermy; assay: antagonism of reserpine-induced hypotermy in mice (antidepressant activity); assay type: in vivo; details: for antidepressant efficacy/potency compared with Imipramine: mouse, in vivo
Protocol: The antidepressant activity was assessed by measuring the antagonism of reserpine-induced hypotermy in mice. The change in body temperature (Δt) was detected as compared to the control animals (B. M. Askew, Life Sci. 10, 725 /1963/). The acute toxicity data /LD50 / were determined on mice; the evaluation was performed 24 hours after the administration of the compounds (J. T. Litchfield and F. Wilcoxon, J. Pharmacol. exp. Ther. 96, 99 /1949/).

[7] = acute toxicity (LD50) in mice; details: mouse, in vivo, evaluated 24 hours after administration
[8] = oral blood pressure lowering in awake spontaneously hypertensive rats; assay type: in vivo; details: 1.0 to 2.5 mg/kg orally
Text: A group of the new compounds according to the invention exerts hypotensive effect on anesthetized animals in low dosages. […] The hypotensive effect of the compounds is accompanied by bradycardia; they inhibit the vasomotor reflexes acting both at central and peripheral target structures. The mechanism of hypotensive effect is different in certain aspects from that of the hydrogenated ergot alkaloids; namely, the new derivatives have no or only negligible adrenolytic activity. Thus, the hypotensive effect is mainly due to an action exerted on the vasomotor center. These derivatives lower the blood pressure also in hypertensive animals upon oral administration. […] The compounds according to the invention exert powerful hypotensive action also in cats.

SMILES | Duration of action ([1]; 0.5 mg/kg i.v.) | ED50 (serotonine receptor [2]; po) | ED50 (serotonine receptor [2]; sc) | IC50 (serotonine receptor [3]) | Duration of action ([1]; 0.1 mg/kg i.v.) | further results
CN1CC(CN(CCN=[N+]=[N-])S(C)(=O)=O)CC2c3cccc4c3c(c(Br)n4C)CC21 (centres unmarked) [Example 11, 2-bromo-1,6-dimethyl-8-[(N-methanesulfonyl, N-azidoethyl)-aminomethyl]-ergoline tartarate] | 2 h | 2 mg/kg | 0.3 mg/kg | 0.101 µM | – | Duration of action ([1]; 0.25 mg/kg i.v.): 2 h
CN1CC(CN(CCOS(C)(=O)=O)S(C)(=O)=O)CC2c3cccc4c3c(cn4C)CC21 (centres unmarked) [Example 9, 1,6-dimethyl-8-[(N-methanesulfonyl, N-methanesulfonyloxy-ethyl)-aminomethyl]-ergoline hydrogen maleate] | 1 h | 1 mg/kg | 0.082 mg/kg | 0.106 µM | – | –
CN1C[C@H](C(=O)N[C@]2(C)O[C@@]3(O)[C@@H]4CCCN4C(=O)[C@H](Cc4ccccc4)N3C2=O)C[C@@H]2c3cccc4[nH]cc(c34)C[C@H]21 [Dihydroergotamine, reference compound] | – | – | – | – | – | Duration of action ([1]; 0.2 mg/kg i.v.): 0.5 h
CC(C)C[C@H]1C(=O)N2CCC[C@H]2[C@]2(O)O[C@](NC(=O)[C@@H]3C=C4c5cccc6[nH]c(Br)c(c56)C[C@H]4N(C)C3)(C(C)C)C(=O)N12 [Bromocryptine, 2-bromo-α-ergocryptine, reference compound] | – | – | – | – | – | Antagonism of Haloperidol effect in rats, Inhibition (dopamine receptor [4]; 10.0 mg/kg p.o.): 25.9%; Antagonism of Haloperidol effect in rats, Inhibition (dopamine receptor [4]; 10.0 mg/kg s.c.): 26.2%; Antagonism of Haloperidol effect in rats, Inhibition (dopamine receptor [4]; 30.0 mg/kg p.o.): 54.8%; Antagonism of Haloperidol effect in rats, Inhibition (dopamine receptor [4]; 30.0 mg/kg s.c.): 34.2%; IC50 (dopamine receptor [5]): 0.02 µM
CN1CC(CN(CCN=[N+]=[N-])S(C)(=O)=O)=CC2c3cccc4[nH]cc(c34)CC21 (centres unmarked) [Example 2, 6-Methyl-8-[(N-methanesulfonyl, N-azidoethyl)-aminomethyl]-ergol-8-ene hydrogen maleate] | 2 h | – | – | – | 2 h | Antidepressant activity, Δt (change in body temperature vs control) ([6]; 10 mg/kg p.o., reserpine-induced hypotermy, mice): +6.5 °C; antidepressant efficacy/potency compared with Imipramine [6]: higher than that of Imipramine; LD50 at 24 h ([7]; ip): 100 mg/kg; LD50 at 24 h ([7]; po): 100 mg/kg; blood pressure lowering (in words) [8]: lowered the blood pressure for several hours; Antagonism of Haloperidol effect in rats, Inhibition (dopamine receptor [4]; 3.0 mg/kg s.c.): 68.7%; Antagonism of Haloperidol effect in rats, Inhibition (dopamine receptor [4]; 10.0 mg/kg p.o.): 38.9%; Antagonism of Haloperidol effect in rats, Inhibition (dopamine receptor [4]; 10.0 mg/kg s.c.): 92.2%; Antagonism of Haloperidol effect in rats, Inhibition (dopamine receptor [4]; 30.0 mg/kg p.o.): 48.2%; dopamine stimulant potency compared with Bromocryptine in vivo (dopamine receptor [4]; in vivo): higher than that of the reference substance; pharmacodynamic effects upon oral administration (in words) (dopamine receptor [4]; oral): could also be detected upon oral administration; IC50 (dopamine receptor [5]): 0.05 µM; dopamine stimulant efficacy compared with Bromocryptine in vitro (dopamine receptor [5]; in vitro): close to that of Bromocryptine
CN1CC(CN(CCN=[N+]=[N-])S(C)(=O)=O)CC2c3cccc4c3c(cn4C)CC21 (centres unmarked) [Example 10, 1,6-dimethyl-8-[(N-methanesulfonyl, N-azidoethyl)-aminomethyl]-ergoline hydrogen maleate] | 1.5 h | 0.47 mg/kg | 0.042 mg/kg | 0.0024 µM | – | potency compared with Methysergide upon oral administration (serotonine receptor [2]; in vivo, po): more potent than Methysergide
CN1CC(CN(CCN=[N+]=[N-])S(C)(=O)=O)=CC2c3cccc4[nH]c(Br)c(c34)CC21 (centres unmarked) [Example 3, 2-Bromo-6-methyl-8-[(N-methanesulfonyl, N-azidoethyl/aminomethyl]-ergol-8-ene hydrogen maleate] | 1.5 h | – | – | – | 1.5 h | –
CN1CC(CN(CCOS(C)(=O)=O)S(C)(=O)=O)=CC2c3cccc4[nH]cc(c34)CC21 (centres unmarked) [Example 1, 6-Methyl-8-[(N-methanesulfonyl, N-methanesulfonyloxyethyl)-aminomethyl]-ergol-8-ene hydrogen maleate] | 1.5 to 2 h | – | – | – | – | antidepressant efficacy/potency compared with Imipramine [6]: equal to; LD50 at 24 h ([7]; ip): 100 mg/kg; LD50 at 24 h ([7]; po): 100 mg/kg
CN1CC(CN(CCN=[N+]=[N-])S(C)(=O)=O)CC2c3cccc4[nH]cc(c34)CC21 (centres unmarked) [Example 7, 6-Methyl-8-[(N-methanesulfonyl, N-azidoethyl)-aminomethyl]-ergoline hydrogen maleate] | 1 h | 1.7 mg/kg | 0.29 mg/kg | 0.00248 µM | – | –
CN1CC(CN(CCN=[N+]=[N-])S(C)(=O)=O)=CC2c3cccc4c3c(cn4C)CC21 (centres unmarked) [Example 4, 1,6-Dimethyl-8-[(N-methanesulfonyl, N-azidoethyl/aminomethyl]-ergol-8-ene tartarate] | 2 h | 3.7 mg/kg | 0.22 mg/kg | 0.00121 µM | 1.5 h | –
